{
  "source": "patent US20200277649A1",
  "about": "“BROAD SPECTRUM DETECTION OF DNA DAMAGE BY REPAIR ASSISTED DAMAGE DETECTION (RADD)” (University of South Alabama, priority 2017, published 2020)",
  "system": "CHO-K1 cells",
  "assay": "RADD detection of BrdU incorporation into genomic DNA",
  "type": "cell-based, Chinese hamster",
  "details": "CHO-K1 cells sensitized 24 h, versus basal levels, FIG. 5A",
  "data": [
    {"smiles": "O=c1[nH]c(=O)n([C@H]2C[C@H](O)[C@@H](CO)O2)cc1Br", "note": "[BrdU, bromodeoxyuridine]", "values": [
      {"measurement": "RADD mean fluorescence intensity of the nucleus (DNA lesions)", "result": "increased levels of DNA lesions"}
    ]}
  ]
}
